Experimental findings from ChEMBL document CHEMBL5291721, “A preclinical secondary pharmacology resource illuminates target-adverse drug reaction associations of marketed drugs” (Nat Commun, 2023) are described below.

Test [1] deals with T1, Alpha-2C adrenergic receptor (Homo sapiens, UniProt P18825).
T1 sequence (P18825 whole entry): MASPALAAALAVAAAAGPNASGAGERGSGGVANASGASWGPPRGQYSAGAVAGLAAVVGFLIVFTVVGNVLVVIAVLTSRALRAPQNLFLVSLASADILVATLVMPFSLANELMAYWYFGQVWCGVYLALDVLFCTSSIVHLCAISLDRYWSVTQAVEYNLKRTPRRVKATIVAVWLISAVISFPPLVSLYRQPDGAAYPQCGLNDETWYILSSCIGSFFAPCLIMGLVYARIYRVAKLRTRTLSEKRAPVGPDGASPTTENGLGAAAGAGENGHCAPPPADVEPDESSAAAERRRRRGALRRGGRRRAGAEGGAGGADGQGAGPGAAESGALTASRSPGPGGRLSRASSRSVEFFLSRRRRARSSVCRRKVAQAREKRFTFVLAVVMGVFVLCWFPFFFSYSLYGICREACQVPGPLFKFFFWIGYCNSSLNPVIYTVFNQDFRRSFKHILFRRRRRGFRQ
It is filed as functional.

Test [2] concerns the target T2, 5-hydroxytryptamine receptor 2B (Homo sapiens, UniProt P41595). The format is functional, cell-based.
Test [3] has as its target T2, 5-hydroxytryptamine receptor 2B. It is filed as functional, cell-based. The source holds these as a separate data set.
The target in test [4] is T3, 5-hydroxytryptamine receptor 3A (Homo sapiens, UniProt P46098).
T3 sequence (P46098 whole entry): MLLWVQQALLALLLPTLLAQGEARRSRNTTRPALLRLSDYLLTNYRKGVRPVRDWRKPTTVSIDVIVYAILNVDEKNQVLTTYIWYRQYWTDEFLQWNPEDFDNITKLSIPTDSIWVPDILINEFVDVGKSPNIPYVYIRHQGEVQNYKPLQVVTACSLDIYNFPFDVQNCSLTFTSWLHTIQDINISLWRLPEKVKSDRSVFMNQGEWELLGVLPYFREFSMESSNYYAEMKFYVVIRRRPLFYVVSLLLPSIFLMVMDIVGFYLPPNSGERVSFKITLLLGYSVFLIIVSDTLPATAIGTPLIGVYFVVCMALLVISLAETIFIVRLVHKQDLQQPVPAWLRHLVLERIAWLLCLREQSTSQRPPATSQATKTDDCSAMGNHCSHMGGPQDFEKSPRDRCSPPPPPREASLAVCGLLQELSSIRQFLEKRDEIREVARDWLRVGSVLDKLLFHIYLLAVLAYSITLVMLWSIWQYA
The format is functional.

For test [5], the target named is T4, Amine oxidase [flavin-containing] A (Homo sapiens, UniProt P21397).
T4 sequence (P21397 whole entry): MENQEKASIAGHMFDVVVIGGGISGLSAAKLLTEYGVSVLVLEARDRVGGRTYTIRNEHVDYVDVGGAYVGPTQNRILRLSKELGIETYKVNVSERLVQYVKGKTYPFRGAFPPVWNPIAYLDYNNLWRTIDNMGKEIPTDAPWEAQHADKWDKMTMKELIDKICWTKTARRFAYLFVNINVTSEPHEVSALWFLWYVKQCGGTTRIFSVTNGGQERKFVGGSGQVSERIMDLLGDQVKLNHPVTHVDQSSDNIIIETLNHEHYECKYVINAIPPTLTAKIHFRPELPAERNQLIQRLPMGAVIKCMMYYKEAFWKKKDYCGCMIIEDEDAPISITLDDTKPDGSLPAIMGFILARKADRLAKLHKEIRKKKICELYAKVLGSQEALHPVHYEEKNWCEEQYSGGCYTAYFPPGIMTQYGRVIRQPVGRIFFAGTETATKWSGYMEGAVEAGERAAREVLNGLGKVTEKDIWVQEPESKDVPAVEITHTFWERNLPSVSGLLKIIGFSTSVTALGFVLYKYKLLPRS
It is filed as functional.

The next test deals with D(1A) dopamine receptor (Homo sapiens, UniProt P21728). It is filed as functional, cell-based.
D(1A) dopamine receptor, sequence (P21728 whole entry): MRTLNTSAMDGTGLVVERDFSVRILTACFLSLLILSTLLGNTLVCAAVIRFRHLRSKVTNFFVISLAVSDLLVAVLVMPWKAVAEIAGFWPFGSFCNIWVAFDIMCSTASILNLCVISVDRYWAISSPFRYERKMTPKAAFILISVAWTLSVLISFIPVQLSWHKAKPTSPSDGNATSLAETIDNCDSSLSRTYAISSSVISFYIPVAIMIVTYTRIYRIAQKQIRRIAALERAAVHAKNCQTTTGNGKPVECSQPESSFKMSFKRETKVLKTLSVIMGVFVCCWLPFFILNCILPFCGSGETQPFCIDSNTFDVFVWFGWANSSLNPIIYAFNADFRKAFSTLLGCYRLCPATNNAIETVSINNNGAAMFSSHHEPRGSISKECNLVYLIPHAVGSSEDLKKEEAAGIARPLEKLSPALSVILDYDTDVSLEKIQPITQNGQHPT
Test [6] deals with T5, Alpha-2A adrenergic receptor (Homo sapiens, UniProt P08913).
T5 sequence (P08913 whole entry): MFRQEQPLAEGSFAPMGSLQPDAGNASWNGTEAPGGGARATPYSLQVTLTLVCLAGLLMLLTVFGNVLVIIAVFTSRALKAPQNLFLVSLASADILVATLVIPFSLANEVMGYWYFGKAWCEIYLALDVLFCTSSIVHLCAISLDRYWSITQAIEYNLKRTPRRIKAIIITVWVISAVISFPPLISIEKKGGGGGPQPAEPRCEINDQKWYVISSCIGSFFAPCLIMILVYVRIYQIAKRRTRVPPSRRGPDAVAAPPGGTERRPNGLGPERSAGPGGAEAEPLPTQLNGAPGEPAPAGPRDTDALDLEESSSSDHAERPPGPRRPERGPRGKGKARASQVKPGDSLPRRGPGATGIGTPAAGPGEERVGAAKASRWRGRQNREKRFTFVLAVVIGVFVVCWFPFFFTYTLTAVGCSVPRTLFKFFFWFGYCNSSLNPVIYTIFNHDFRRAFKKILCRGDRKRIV
It is filed as functional, cell-based.

Some results are limits rather than exact numbers.
Further: assay procedure not described here.

T2 sequence (P41595 whole entry): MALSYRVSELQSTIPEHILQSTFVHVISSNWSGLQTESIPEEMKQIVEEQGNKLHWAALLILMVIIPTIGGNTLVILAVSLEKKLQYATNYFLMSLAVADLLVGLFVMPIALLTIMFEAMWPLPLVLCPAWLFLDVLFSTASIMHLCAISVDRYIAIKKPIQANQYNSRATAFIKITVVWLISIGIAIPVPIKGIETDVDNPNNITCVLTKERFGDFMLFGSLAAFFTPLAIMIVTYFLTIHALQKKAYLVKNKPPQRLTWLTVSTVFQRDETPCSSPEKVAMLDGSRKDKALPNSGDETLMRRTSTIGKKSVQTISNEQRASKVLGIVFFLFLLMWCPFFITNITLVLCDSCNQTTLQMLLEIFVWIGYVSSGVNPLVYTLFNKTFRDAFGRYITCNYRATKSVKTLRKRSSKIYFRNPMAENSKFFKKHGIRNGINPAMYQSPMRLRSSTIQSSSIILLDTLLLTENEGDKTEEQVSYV

Usually AC50 stands for the concentration giving half of the maximal activity seen. Regarding `COc1ccc2c(c1)C(=O)N(CCc1ccc(S(=O)(=O)NC(=O)NC3CCCCC3)cc1)C(=O)C2(C)C` [GLIQUIDONE], the AC50 (in test [1]; in test [2]; in test [3]; in test [4]; in test [5]; on D(1A) dopamine receptor) was above 30 µM throughout. The AC50 in test [6] was above 30 µM.
Turning to `CO/N=C(\C(=O)N[C@@H]1C(=O)N2C(C(=O)[O-])=C(C[N+]3(C)CCCC3)CS[C@H]12)c1csc(N)n1`, the AC50 (in test [1]; in test [2]; in test [3]; in test [4]; in test [5]; on D(1A) dopamine receptor) was above 300 µM in each case. In addition, in test [6], the AC50 was above 300 µM.
`O=C(CCCCCCC(=O)Nc1ccccc1)NO` [VORINOSTAT]: the AC50 (in test [1]; in test [2]; in test [3]; in test [4]; in test [5]; on D(1A) dopamine receptor) was above 30 µM throughout. The AC50 in test [6] was above 30 µM.
On to `CCc1nn(CCCN2CCN(c3cccc(Cl)c3)CC2)c(=O)n1CCOc1ccccc1` [NEFAZODONE], for which the AC50 in test [1] is 0.63 µM; in test [2], above 10 µM; in test [3], 1.1 µM; in test [4] it was above 10 µM; in test [5] it was above 10 µM.
As to `CC(=O)OCC(=O)[C@@]1(O)CC[C@H]2[C@@H]3CCC4=CC(=O)CC[C@]4(C)[C@H]3C(=O)C[C@@]21C` [CORTISONE ACETATE], the AC50 in test [1], in test [2], in test [3], in test [4] and in test [5] was above 30 µM each time.
`CCCS(=O)(=O)Nc1ccc(F)c(C(=O)c2c[nH]c3ncc(-c4ccc(Cl)cc4)cc23)c1F` [VEMURAFENIB]: the AC50 (in test [1]; in test [2]; in test [3]; in test [4]; in test [5]; at D(1A) dopamine receptor) was above 30 µM in each case. Further, the AC50 in test [6] was above 30 µM.
In the case of `CCN(CC)CCNC(=O)c1cc(Cl)c(N)cc1OC` [METOCLOPRAMIDE], the AC50 in test [1] was 3 µM; in test [2] it was above 10 µM; in test [3], 4.3 µM; in test [4] it was 3.55 µM; in test [5], above 10 µM; at D(1A) dopamine receptor, above 10 µM. In addition, the half-maximal activity concentration (AC50) in test [6] is above 10 µM.
Turning to `CNC(=O)c1cc(Oc2ccc(NC(=O)Nc3ccc(Cl)c(C(F)(F)F)c3)cc2)ccn1` [SORAFENIB], the AC50 in test [1] is above 30 µM; in test [4], above 30 µM; in test [5], 8.26 µM; on D(1A) dopamine receptor, above 30 µM; in test [6], above 30 µM.
For the molecule `CN(C)CCCN1c2ccccc2CCc2ccc(Cl)cc21` [CLOMIPRAMINE], the AC50 in test [2] is above 10 µM; in test [3] it was 5.6 µM; in test [4], above 30 µM; in test [5], above 10 µM; in test [6] it was above 10 µM.
In the case of `COC(=O)C1=C(C)NC(C)=C(C(=O)OCC(C)C)C1c1ccccc1[N+](=O)[O-]` (configuration not stated) [NISOLDIPINE], the AC50 in test [1] was above 10 µM; in test [2], above 10 µM; in test [3], 17 µM; in test [4], above 30 µM; in test [5] it was above 10 µM; at D(1A) dopamine receptor it was above 30 µM. Further, the AC50 in test [6] is above 10 µM.
As for `OCc1cc([C@@H](O)CNCCCCCCOCCOCc2c(Cl)cccc2Cl)ccc1O` [VILANTEROL], the AC50 is above 30 µM in test [1]; above 30 µM in test [2]; above 30 µM in test [3]; above 30 µM in test [4]; above 30 µM in test [5]; 2.2 µM at D(1A) dopamine receptor. The AC50 in test [6] is above 30 µM.
As to `CC(C(=O)O)c1ccc(C(=O)c2cccs2)cc1` (configuration not stated) [SUPROFEN], the AC50 in test [1] was above 10 µM; in test [2], above 10 µM; in test [3] it was above 10 µM; in test [4] it was above 30 µM; in test [5] it was above 10 µM; at D(1A) dopamine receptor, above 10 µM. The same molecule registered an AC50 in test [6] above 10 µM.
Turning to `NS(=O)(=O)c1cc2c(cc1Cl)NCNS2(=O)=O` [HYDROCHLOROTHIAZIDE], the AC50 (in test [1]; in test [2]; in test [3]; in test [4]; in test [5]; at D(1A) dopamine receptor) was above 10 µM in each case. The molecule also yielded an AC50 in test [6] above 10 µM.
Regarding `COC(=O)[C@@H]1CC2=CC(=O)CC[C@]2(C)[C@@]23O[C@@H]2C[C@@]2(C)[C@@H](CC[C@@]24CCC(=O)O4)[C@H]13` [EPLERENONE], the half-maximal activity concentration (AC50) (in test [1]; in test [2]; in test [3]; in test [4]; in test [5]; at D(1A) dopamine receptor) was above 30 µM each time. Besides, the AC50 in test [6] is above 30 µM.
In the case of `COC(=O)N[C@H](C(=O)N1CCC[C@H]1c1nc(-c2ccc(-c3ccc(-c4c[nH]c([C@@H]5CCCN5C(=O)[C@@H](NC(=O)OC)C(C)C)n4)cc3)cc2)c[nH]1)C(C)C`, the half-maximal activity concentration (AC50) (in test [1]; in test [2]; in test [3]; in test [4]; in test [5]; on D(1A) dopamine receptor) was above 30 µM throughout. The molecule also registered a half-maximal activity concentration (AC50) in test [6] above 30 µM.
Turning to `NC(N)=Nc1nc(CSCCC(N)=NS(N)(=O)=O)cs1` [FAMOTIDINE], the AC50 is above 10 µM in test [1]; above 10 µM in test [2]; above 10 µM in test [3]; above 10 µM in test [4]; 8.1 µM in test [5]; above 10 µM at D(1A) dopamine receptor. Besides, the concentration at half-maximal activity (AC50) in test [6] is above 10 µM.
Regarding `CC(N)Cc1ccccc1` (configuration not stated) [AMPHETAMINE], the concentration at half-maximal activity (AC50) in test [1], in test [2], in test [3], in test [4], in test [5] and in test [6] was above 30 µM each time.
As for `Cc1cccc(C)c1OCC(C)N` (configuration not stated) [MEXILETINE], the AC50 in test [1] was above 30 µM; in test [2], above 30 µM; in test [3], 8.5 µM; in test [5], 18 µM; at D(1A) dopamine receptor, above 30 µM; in test [6] it was above 30 µM.
In the case of `CC(C)NNC(=O)c1ccncc1` [IPRONIAZID], the AC50 (in test [1]; in test [2]; in test [3]; in test [4]; at D(1A) dopamine receptor; in test [6]) was above 30 µM each time.
As for `CN1CCCC(n2nc(Cc3ccc(Cl)cc3)c3ccccc3c2=O)CC1` (configuration not stated) [AZELASTINE], the AC50 is 2.4 µM in test [1]; 2.4 µM in test [4]; above 30 µM in test [5]; above 30 µM at D(1A) dopamine receptor; 0.86 µM in test [6].
